Entries after “also recorded” stand apart in the source; their conditions may differ.
Columns and labels:
[1] = Cell proliferation in vitro; format: cell-based
[2] = system: LOVO (colon cancer xenograft); experiment: Antitumor activity in mice, LOVO colon cancer xenograft; format: in vivo, Nude mice; conditions: 50 mg/Kg intraperitoneal daily for 14 days
Method: (§1) Nude mice (Jackson Laboratories, Bar Harbor, Me., USA) were injected with 4*106 cells of MDA-MB-468 and LOVO subcutaneously in the right flank, and tumor size was measured weekly using a caliper. When the tumor reached approximately 400 mm^3 […], the mice were divided into control treated groups, the treatment including administration of DHP-5 (50 mg/Kg) via intraperitoneal injection daily for 14 days. The general toxicity of the treatment was determined by measuring the total body weight of the treated and control mice. The breeding, care and sacrifice of the animals were in accordance with the protocols approved by the Animal Care and Use Committee of the King Faisal Specialist Hospital and Research Centre.
(§2) Tumor growth of MDA-MB-468 (breast cancer xenograft) and LOVO (colon cancer xenograft) was recorded in untreated mice groups and DHP-5 (50 mg/kg) treated mice groups.

[3] = system: MCF-7 breast cancer cells; experiment: Side population analysis of MCF-7 breast cancer cells (DyeCycle Violet staining); format: cell-based, human; conditions: DHP-5 50, 75 and 100 μM, Verapamil 200 μM
Method: (§3) For DCV staining, cells were pelleted and suspended in DMEM cell culture medium at a concentration of 1*10^6 cells/ml. DCV (Invitrogen Molecular Probes®, Eugene, Oreg.) was added at a final staining concentration of 10 μM, as this concentration gave optimal separation between SP and non SP cells. PI stained was used to exclude dead cells. Functionally, to gate only side population cells, Verapamil 200 μM or FTC 10 μg/ml was used. All analyses were performed on a FACS LSRII (BD Biosciences). Debris and cell clusters were excluded during side-scatter and forward-scatter analyses.

ABCG2 [4] = target: T1, ABCG2 (Homo sapiens, UniProt Q9UNQ0); experiment: Mitoxantrone accumulation in MCF-7 cells; format: cell-based
T1 construct: endogenous in cells; host or cells: MCF-7 cells
T1 sequence (Q9UNQ0 1-655): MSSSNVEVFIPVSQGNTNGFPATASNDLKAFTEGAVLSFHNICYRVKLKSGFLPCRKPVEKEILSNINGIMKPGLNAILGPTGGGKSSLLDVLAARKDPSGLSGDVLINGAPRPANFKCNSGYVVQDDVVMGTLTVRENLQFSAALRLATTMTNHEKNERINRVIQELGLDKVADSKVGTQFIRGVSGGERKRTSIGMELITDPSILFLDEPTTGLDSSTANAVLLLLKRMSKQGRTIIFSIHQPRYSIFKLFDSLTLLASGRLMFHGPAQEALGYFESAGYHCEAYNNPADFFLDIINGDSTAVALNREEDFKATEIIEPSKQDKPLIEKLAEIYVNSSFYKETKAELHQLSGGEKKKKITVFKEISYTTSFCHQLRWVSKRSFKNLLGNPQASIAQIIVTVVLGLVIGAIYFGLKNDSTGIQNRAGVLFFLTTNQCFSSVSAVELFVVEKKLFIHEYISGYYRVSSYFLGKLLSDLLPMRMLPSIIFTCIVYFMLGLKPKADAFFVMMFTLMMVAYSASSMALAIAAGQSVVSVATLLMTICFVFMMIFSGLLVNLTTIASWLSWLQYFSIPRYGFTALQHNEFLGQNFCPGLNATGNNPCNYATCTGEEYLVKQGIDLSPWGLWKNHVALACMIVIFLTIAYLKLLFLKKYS

[5] = system: MDA-MB-468 (breast cancer xenograft); experiment: Antitumor activity in mice, MDA-MB-468 breast cancer xenograft; format: in vivo, Nude mice; conditions: 50 mg/Kg intraperitoneal daily for 14 days
Method: as §1, §2

[6] = system: tumor derived cells of LOVO xenograft; experiment: Side population analysis of tumor derived cells of LOVO xenograft; format: in vivo, Nude mice; conditions: DHP-5 50 mg/kg for 14 days, Verapamil 200 μM
Method: as §3
A side population analysis of tumor derived cells of LOVO xenograft that were untreated (FIG. 4A), treated with side population inhibitor reference drug Verapamil 200 μM (FIG. 4B), and side population analysis of tumor cells derived from animals treated by DHP-5 50 mg/kg for 14 days.
as §1, with “The breeding, care and sacrifice of the animals were in accordance with the protocols approved by the Animal Care and Use Committee of the King Faisal Specialist Hospital and Research Centre.” left out

[7] = Apoptosis induction in vitro; format: cell-based
breast cancer cells = experiment: Self-renewal ability of breast cancer cells; format: cell-based
lovo colon cancer cells = experiment: Side population inhibition on lovo colon cancer cells; format: cell-based
Method: The relationship of compound structure and compound activity of various Formula I compounds, i.e., 5-benzoyl-3,4-dihydropyrimidin-2(1H)-one/thione compounds, on inhibition of side population cancer stem cells was studied. The various 5-benzoyl-3,4-dihydropyrimidin-2(1H)-one/thione compounds and the corresponding inhibition activity are provided below in Table 1.
The newly synthesized compounds DHP (1-9) were evaluated for side population inhibition on lovo colon cancer cells (%) at 10 μM concentration. […] It was noted that most of the compounds which include a methoxy group at R1 were active. The methoxy group seems to help the molecule to align in protein pocket. Compounds with an oxygen atom at R2 were also active. It seems that the oxygen atom at position R2 also plays some important role in binding with protein pocket.
as §3, with “Debris and cell clusters were excluded during side-scatter and forward-scatter analyses.” left out

ABCG2 [8] = experiment: Immunofluorescence staining of ABCG2 in MCF-7 cells; format: cell-based, human
MCF-7 cells = experiment: Flow cytometric DNA cell cycle analysis; format: cell-based, human; conditions: DHP-5 treated vs untreated
Method: 2×10^6 cells were fixed in 1 ml ethanol (70%) for 60 min. at room temperature. Harvested cells were resuspended in 1 ml Na citrate (50 mM) containing 250 μg RNase A and incubated at 50° C. for 60 min. Next, cells were resuspended in the same buffer containing 4 μg propidium iodine (PI) and incubated for 30 min. before being analyzed by flow cytometry (Becton Dickinson, San Jose, Calif., USA). The percentage of cells in various cell cycle phases was determined by using Cell Quest Pro software (Becton Dickinson).

[9] = General toxicity by total body weight of treated mice; format: in vivo; conditions: animal models of breast and colon cancer
Method: as §1

## CCOc1ccc(C2NC(=O)NC=C2C(=O)c2cc(OC)c(OC)c(OC)c2)cc1 (stereo not shown) [DHP-5, 4-(4-ethoxyphenyl)-5-(3,4,5-trimethoxybenzoyl)-3,4-dihydropyrimidin-2(1H)-one]
[1]
  cell proliferation: blocked cell proliferation
[2]
  tumor growth, LOVO colon cancer xenograft: superior efficacy compared to reference drug Doxorubicin; also recorded: shrinking of tumor
[3]
  inhibitory effect on side population cancer stem cells versus Verapamil: more potent inhibitor of side population cells than reference drug Verapamil; also recorded: more potent inhibitory effect of DHP-5 on side population cancer stem cells than reference drug Verapamil
ABCG2 [4]
  Mitoxantrone accumulation (selective ABCG2 substrate): increase in Mitoxantrone accumulation
[5]
  tumor growth, MDA-MB-468 breast cancer xenograft: superior efficacy compared to reference drug Doxorubicin; also recorded: shrinking of tumor
[6]
  inhibitory effect on side population cancer stem cells of xenograft tumor cells versus Verapamil: more potent inhibitory effect of DHP-5 on side population cancer stem cells than reference drug Verapamil
[7]
  apoptosis: induced apoptosis
Breast cancer cells
  self-renewal ability of breast cancer cells: blocking self-renewal ability of breast cancer cells in a dose dependent manner
Lovo colon cancer cells; 10 μM
  side population inhibition, activity in words: moderately active
Lovo colon cancer cells; Homo sapiens
  inhibition at 10 µM: 58.8%
ABCG2 [8]
  expression of ABCG2: decreased the expression of ABCG2
MCF-7 cells
  cell cycle phase distribution: increased accumulation of treated cells in G2+M mitosis phase
[9]
  general toxicity: without any sign of general toxicity

— patent US9119856B1, “Method for treating cancer using a dihydropyrimidine derivative” (KING SAUD UNIVERSITY, priority 2015, dated 2015)
